# Source: PubChem BioAssay AID1996
# Settings: buffer; pH 7.4; 200.0 µM
row,solubility kinetic [µg/mL],SMILES
1,> 32.4,CCC(CC)c1nc2ccccc2c(=O)[nH]1
2,> 44.4,CCOC(=O)C1CCCN(C(=O)c2ccc(Cl)cc2)C1 (stereo not drawn)
3,< 0.4,CC(=O)Nc1ccc(NC(=O)COc2ccc(-c3ccccc3)cc2)cc1
4,> 45.7,CC(=O)N1CCC(C(=O)NCCOc2cccc(C)c2)CC1
5,> 46.9,O=C(CSc1nc2ncc(Cl)cc2[nH]1)N1CCOCC1
6,40.1,CCOC(=S)SCC(=O)Nc1ncc(C)s1
7,> 68.1,COc1ccc(-c2nnc(SCC(=O)Nc3c(Cl)cc(Cl)cc3C(=O)O)o2)cc1
8,10.1,O=C(COC(=O)c1cccnc1Cl)NC(=O)c1ccc(OC(F)F)cc1
9,48.3,Cl.NCCNC(=O)c1c(O)c2cccc3c2n(c1=O)CCC3
10,1.3,CCOC(=O)/C(C#N)=C1\C(=O)N(Cc2ccccc2)c2ccccc21
11,> 50.6,CCCC/C(O)=C1\C(=O)CC(C)(C)CC1=NCCCCCC(=O)O
12,> 45.1,CC(=O)c1ccc(NC(=O)C(C)Sc2ccccn2)cc1 (stereo not drawn)
13,43.1,Cc1ccc2oc(C(=O)NCCC3CCCCO3)c(C)c2c1 (stereo not drawn)
14,37.2,CCCN1CNC(=S)N(c2cccc(C)c2)C1
15,> 37.1,Cc1ccc(C(=O)NCCN2CCNC2=O)cc1
16,48,COCc1c(C(=O)OCC(=O)NCc2ccco2)oc2ccccc12
17,> 44.5,Cc1cccc(NC(=O)CCN2CCCC(C)C2)c1.Cl (stereo not drawn)
18,29.9,Cc1ccc(C)c(SCC(=O)c2ccc[nH]2)c1
19,< 0.4,CCOc1cc2c(cc1/C=C/c1noc(C)c1[N+](=O)[O-])OC(C)C2 (stereo not drawn)
20,> 23.1,CCCNc1c(N)c(=O)c1=O

row,solubility kinetic [µg/mL],SMILES
1,3.5,CCC(C(=O)OCC(=O)Nc1ccc(OC)cc1OC)c1ccccc1 (stereo not drawn)
2,> 32.4,Cn1ccnc1COc1ccc(C=O)cc1
3,31.1,Cc1ccc(C)c(NC(=O)CN(C)C(=O)c2cccc(Oc3ccccc3)c2)c1
4,> 53.1,CCOc1cnc(C(=O)NNC(=O)c2ccccc2Br)o1
5,3.2,Cc1cccc(OCCc2c(C)[nH]c(=S)[nH]c2=O)c1
6,29.8,CC(=O)Nc1ccc(S(=O)(=O)N2CCSC2)cc1
7,31.3,Cc1[nH]c2ccccc2c1CCNC(=O)c1c(N)no[n+]1[O-]
8,> 49.3,CCOC(=O)Cc1csc(NC(=O)CC(C)(C)CC(=O)O)n1
9,44.5,CCC(=O)Nc1ccc(NC(=O)CCc2ccccc2)cn1
10,> 46.7,C/C(=C\c1ccc2c(c1)OCO2)C(=O)c1c(C)cc(C)[nH]c1=O
11,8.2,CCc1cccc(NC(=O)COC(=O)/C=C/c2cccs2)c1
12,> 49.1,Cc1noc(C)c1C(=O)NC(Cc1c[nH]c2ccccc12)C(=O)O (stereo not drawn)
13,22.7,O=C(COc1cccnc1[N+](=O)[O-])Nc1cccc2ccccc12
14,> 51.7,CCN(CC(=O)NCc1cccs1)C(=O)Cc1ccc(C)c(C)c1
15,> 35,NC(=O)Cn1cnc2nc3n(c2c1=O)CCC3
16,2,Cc1ccc(CONC(=O)c2ccc(Cl)cc2)cc1
17,> 48,Cc1ccc[n+](CC(=O)Nc2nc3ccccc3s2)c1.[Cl-]
18,5,Cc1ccc(NC(=O)c2ccc(Oc3ncccn3)cc2)cc1
19,> 56.2,Cc1nnc(SCC(=O)NCC(=O)Nc2ccc(F)c(F)c2F)n1N

# The remaining lines, values behind:
row,SMILES,solubility kinetic [µg/mL]
1,Cc1ccc(CNC(=O)C(c2ccccc2)c2ccccc2)cc1,< 0.7
2,CC1CCN(C(=S)c2ccc(N(C)C)cc2)CC1,5.4
3,Cc1cc(NC(=O)c2cc([N+](=O)[O-])cc([N+](=O)[O-])c2)no1,9.8
4,Cc1ccccc1OCCN1CCCC1,19.5
5,COc1ccc(NC(=O)CC2CC3CCC2C3)cc1S(=O)(=O)N1CCOCC1 (stereo not drawn),> 61.3
6,O=C(c1cccs1)N1CCN=C1SCc1ccccc1F,< 0.3
7,COc1ccc(-c2cc(C(=O)N3CCOCC3)no2)cc1,> 43.2
8,CC(=O)C1=C(O)C(=O)N(Cc2ccccc2)C1c1ccc(N(C)C)cc1 (stereo not drawn),51.6
9,CCCNc1nc(Cl)nc(NCc2cccnc2)n1,33.5
10,COc1cccc(/C=C(/C(=O)OCC(N)=O)c2ccccc2)c1,> 46.7
11,N[C@H]1CONC1=O,> 15.3
12,O=C(NC(=S)Nc1ccc(CN2CCOCC2)cc1)c1cccc(F)c1,27
13,OC(c1nnc(-c2ccccc2)o1)c1cccs1 (stereo not drawn),> 38.7
14,O=C(/C=C/c1ccc(OCCCF)cc1)N1CCOCC1,> 44
15,CC(O)c1nc2ccccc2n1Cc1ccccc1 (stereo not drawn),35.6
16,CC(=O)c1cn(Cc2ccccc2F)c2ccccc12,< 0.6
17,Cc1c(NC(=O)Nc2ccc(F)cc2F)c(=O)n(-c2ccccc2)n1C,> 53.8
18,Cc1cccc(NS(=O)(=O)c2ccc3c(c2)oc(=O)n3C)c1C,1.5
19,Nc1cccc(-c2cn3cccnc3n2)c1,25.9
20,COc1ccccc1-c1noc(-c2ccccc2C(=O)NCc2ccco2)n1,49.4
21,Nc1nc2c(Cl)ccc(Cl)c2s1,3.2
22,CC(NC(=O)c1cnc2ccccc2n1)c1ccccc1 (stereo not drawn),33.7
23,NC(=O)C1CCN(C(=O)c2cc(-c3ccc(Cl)s3)nc3ccccc23)CC1,9.4
24,O=S(=O)(c1cc(Br)c(Cl)s1)N1CCCC1,1
25,N#CCNC(=O)C1CC(=O)N(CCc2ccc(F)cc2)C1 (stereo not drawn),39.7

row,SMILES,solubility kinetic [µg/mL]
1,COc1ccc(CN2CCOCCOCCOCCOCC2)cc1,> 50.9
2,S=C(Nc1cccnc1)NC1CC2CCC1C2 (stereo not drawn),> 37.1
3,CC12CCC(C(=O)NC3CCCCC3)([C@H](Br)C1=O)C2(C)C (stereo partly drawn),> 53.4
4,CCC1SC(=Nc2cccc(C)c2)NC1=O (stereo not drawn),> 35.1
5,COc1cccc(Nc2ccc(C(=O)O)cc2N)c1,> 38.7
6,COc1ccc(C(=O)Nc2ccccc2C(=O)Nc2cccnc2)cc1,8.8
7,O=C(NCCOc1ccc(Cl)cc1)C(=O)NCC1CCCO1 (stereo not drawn),33.6
8,COc1ccc2[nH]c(=O)c(CNc3ccccc3C)cc2c1,27.6
9,Cc1ccc2oc(=O)n(Cc3ccc(OC(C)C)cc3)c2c1,1
10,O=C(Nc1cc(S(=O)(=O)N2CCOCC2)ccc1N1CCOCC1)c1ccc([N+](=O)[O-])s1,6.1
11,O=C(NCCN1CCCCC1)Nc1ccc(Cl)cc1,> 42.3
12,Cc1nc(N=C(N)N)nc2ccccc12,> 30.2
13,O=c1c2ccccc2[nH]c2ccc(O)cc12,> 31.7
14,CCCCN(C(=O)c1ccco1)C1CCS(=O)(=O)C1 (stereo not drawn),> 42.8
15,COc1ccc(C(CC(=O)O)N2Cc3ccccc3C2=O)cc1 (stereo not drawn),> 46.7
16,CC(=O)NC(CC(=O)O)C(=O)O (stereo not drawn),> 26.3
17,Cc1oc(S(=O)(=O)N2CCCCC2)cc1NC(=O)Nc1ccc(F)cc1,5.5
18,COc1ccc(/C=C(\C#N)C(=O)OC2CCOC2=O)cc1 (stereo not drawn),> 43.1
19,CC(NC(=O)CCSCc1ccccc1F)c1ccccc1 (stereo not drawn),44.5
20,CCCN(CCC)CC(O)Cn1c2ccccc2c2ccccc21 (stereo not drawn),12.5
21,CS(=O)(=O)c1ccc(NS(=O)(=O)c2ccc(Cl)c(C(=O)NC3=NCCS3)c2)cc1,24
22,CC(=O)NC(Cc1c[nH]c2ccccc12)C(=O)NCCc1ccccc1 (stereo not drawn),> 52.4
23,CSc1nc2ccccc2c(=O)n1-c1cccnc1,34.8
24,Nc1cc(N)nc(SCc2ccc(Cl)cc2)n1,> 40
